Columns and labels:
BTK kinase = BTK kinase (Homo sapiens (Human), UniProt Q06187); assay: BTK kinase experiment (ADP-Glo); type: biochemical; details: 2 μM ATP, PolyE4Y1 substrate, 30 minutes pre-incubation
Method: BTK kinase, PolyE4Y1 substrate and Kinase assay buffer III were purchased from Signalchem; ADP-Glo Kinase Assay was purchased from Promega; Nivo multi-label analyzer (PerkinElmer).
1× buffer preparation (which was prepared and used immediately): Kinase assay buffer III was diluted with ddH2O to 1× assay buffer for later use.
The compound to be tested was diluted with 100% DMSO to 10 μM as the first concentration, and followed by a 5-fold dilution to the 8th concentration using a multi-channel pipette, i.e., it was diluted from 10 μM to 0.128 nM.
Each gradient of the compound to be tested was diluted into a working solution with 5% DMSO using 1× buffer, 1 μL/well was added to the corresponding well, and a double-replicate well experiment was set up. 2 μL of BTK enzyme (4 ng) was add to each well and incubating at 25° C. for 30 minutes. After the incubation was completed, 2 μL of a mixture of substrate and ATP (2 μM ATP, 0.2 μg/μL PolyE4Y1) was added to each well and incubating at 25° C. for 120 minutes. At this point, the final concentration gradient of the compound was diluted from 100 nM to 0.00128 nM. After the reaction was completed, 5 μL of ADP-Glo reagent was added to each well, and the reaction continued at 25° C. for 40 minutes. After the reaction was completed, 10 μL of kinase detection reagent was added to each well. After reacting at 25° C. for 30 minutes, PerkinElmer Nivo multi-label analyzer was used to read the chemiluminescence, and the integration time was 0.5 seconds.
Raw data was converted into inhibition rate using the equation: (Sample−Min)/(Max−Min)*100%. The IC50 value could then be derived by performing a curve fit using four-parameter (which was obtained using the “log(inhibitor) vs. response-Variable slope” mode in GraphPad Prism).

plasma proteins [1] = assay: Plasma protein binding experiment (PPB), D; type: in vitro ADME, dog; details: 2 μM, 4 hours dialysis
Method: (§1) Experimental operation: 995 μL of blank plasma of each genus was taken, 5 μL of working solution of test compound (400 μM) or working solution of warfarin (400 μM) was added, so that the final concentrations of the test compound and warfarin in the plasma sample was 2 μM. The sample was mixed thoroughly. The final concentration of the organic phase DMSO was 0.5%; 50 μL of plasma samples of the test compound and warfarin were pipetted into the sample receiving plate (three parallels), and the corresponding volume of the corresponding blank plasma or buffer was immediately added so that the final volume of each sample well was 100 μL, with a volume ratio of 1:1 for plasma: dialysis buffer, and then 500 μL of stop solution was added to these samples, and these samples would be used as a T0 sample for the recovery and stability determination. […] All samples were analyzed by LC/MS/MS after protein precipitation, and the protein binding rate and recovery rate were calculated by the formula: % Unbound=100*F/T, % Bound=100−% Unbound, % Recovery 100*(F+T) T0 (where F was the peak area ratio of the compound in the dialysate after 4 hours of dialysis; T was the peak area ratio of the compound in the plasma after 4 hours of dialysis, and T0 was the peak area ratio of the compound in the plasma sample at zero time).

plasma proteins [2] = assay: Plasma protein binding experiment (PPB), C; type: in vitro ADME, cynomolgus monkey; details: 2 μM, 4 hours dialysis
Method: as §1

plasma proteins [3] = assay: Plasma protein binding experiment (PPB), R; type: in vitro ADME, rat; details: 2 μM, 4 hours dialysis
Method: as §1

plasma proteins [4] = assay: Plasma protein binding experiment (PPB), M; type: in vitro ADME, mouse; details: 2 μM, 4 hours dialysis
Method: as §1

[5] = Hepatocyte metabolic stability experiment (HMS), R; type: in vitro ADME; details: rat, R hepatocytes, read-out: HMS CLint(liver)
Method: Experimental operations: 198 μL of hepatocyte suspension (0.51×10^6 cells/mL) was added to the preheated incubation plate, and 198 μL of culture medium without hepatocytes was added to T0-MC and T120-MC incubation plates for the culture medium control group, and all incubation plates were pre-incubated for 10 minutes in a 37° C. incubator. Then 2 μL of the working solution of the test and control compounds were added and mixed well, and the incubation plate was immediately put into the plate shaker in the incubator, the rotation speed was adjusted to about 650 rpm, and the timer and the reaction were started. 2 duplicate samples for each compound were prepared at each time point. Incubation conditions: 37° C., saturated humidity, and containing 5% CO2. In the test system, the final concentration of the test compound was 1 μM, the final concentration of the control compound was 3 μM, the final concentration of hepatocytes was 0.5×10^6 cells/mL, and the final concentration of the total organic solvent was 0.96%, of which the final concentration of DMSO was 0.1%. […] All samples were mixed and analyzed by LC-MS/MS method. […]

[6] = tested on: experimental autoimmune encephalomyelitis (EAE) model; assay: In vivo efficacy of EAE in C57BL/6 mice; details: C57BL/6 female mice, 5 mg/kg
Method: Experimental methods: Experimental autoimmune encephalomyelitis (EAE) model was established in 10-week-old C57BL/6 female mice, and the animals were randomly divided into two groups according to their weight, of which, group G1 was a pure modeling group with 5 animals, and group G2 was a subject 002 group with 7 animals. On day 0, 100 μL of myelin oligodendrocyte glycoprotein (MOG) emulsion was injected subcutaneously into the hind flank of each animal in the G1-G2 group at two points, totaling 200 μL. After 2 hours and 48 hours, respectively, 200 μL of pertussis toxin (PTX) was injected subcutaneously into the animals of groups G1-G2. The in vivo experiment was finished on day 22, and no treatment was given to group G1 from day 0; G2 group was administered 5 mg/kg of subject 002 once a day for […]. The animals in each group were weighed and scored (including tail weakness, claudication, hind limb paralysis, hind limb paralysis and other symptoms) every 2 days. [table] [table]

Sequence of BTK kinase (Q06187 whole entry): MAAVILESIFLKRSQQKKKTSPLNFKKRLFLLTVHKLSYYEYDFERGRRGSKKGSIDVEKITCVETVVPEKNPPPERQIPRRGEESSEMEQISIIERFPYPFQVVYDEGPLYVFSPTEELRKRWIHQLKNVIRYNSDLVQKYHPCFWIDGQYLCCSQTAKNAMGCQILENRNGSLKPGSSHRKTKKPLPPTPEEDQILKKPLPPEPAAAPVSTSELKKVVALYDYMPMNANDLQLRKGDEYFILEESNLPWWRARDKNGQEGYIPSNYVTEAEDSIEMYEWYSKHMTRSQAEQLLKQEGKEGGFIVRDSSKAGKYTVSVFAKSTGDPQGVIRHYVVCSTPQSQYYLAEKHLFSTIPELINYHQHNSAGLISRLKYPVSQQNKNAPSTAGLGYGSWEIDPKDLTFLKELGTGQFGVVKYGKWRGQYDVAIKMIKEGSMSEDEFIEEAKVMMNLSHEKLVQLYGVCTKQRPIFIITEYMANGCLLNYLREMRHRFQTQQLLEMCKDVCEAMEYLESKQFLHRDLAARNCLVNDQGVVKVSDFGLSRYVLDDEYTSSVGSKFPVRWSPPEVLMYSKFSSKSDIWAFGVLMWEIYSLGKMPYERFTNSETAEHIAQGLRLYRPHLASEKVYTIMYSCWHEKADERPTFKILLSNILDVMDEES

IC50 (BTK kinase): 1.65 nM
Unbound PPB (plasma proteins [1]): 4.3%
Unbound PPB (plasma proteins [2]): 4.1%
Unbound PPB (plasma proteins [3]): 1.3%
Unbound PPB (plasma proteins [4]): 4.5%
CLint scaled at 1 μM [5]: 171 mL/min/kg
Compound: Nc1nccc2c1n(-c1ccc(Oc3ccccc3)cc1)c(=O)n2[C@@H]1CCCN(C(=O)/C=C/CF)C1 [Compound 002]
efficacy in EAE model / severity of the disease (in words) ([6]; QD, compared with the modeling group): effective in reducing the severity of the disease
Scores of animals on day 20 after administration ([6]; EAE model, QD × 29, moulding group 1.8): 0.4

— patent publication US20240217973A1, “IMIDAZOPYRIDINE COMPOUNDS AND USE THEREOF” (MEDSHINE DISCOVERY INC., priority 2021, published 2024)
